Values after ≈ are worked out from the molar mass of the structure shown.
Legend:
Assay type in all cases: functional
Staphylococcus aureus = test: Antibacterial activity against Staphylococcus aureus after 16 hrs by serial dilution method
Escherichia coli = test: Antibacterial activity against Escherichia coli after 16 hrs by serial dilution method
Bacillus subtilis = test: Antibacterial activity against Bacillus subtilis after 16 hrs by serial dilution method
Pseudomonas aeruginosa = test: Antibacterial activity against Pseudomonas aeruginosa after 16 hrs by serial dilution method

| MIC (Staphylococcus aureus) [µg/mL] | MIC (Escherichia coli) [µg/mL] | MIC (Bacillus subtilis) [µg/mL] | MIC (Pseudomonas aeruginosa) [µg/mL] | Structure (SMILES) |
| --- | --- | --- | --- | --- |
| 3.12 (≈ 8.6 µM) | 1.61 (≈ 4.44 µM) | 1.61 (≈ 4.44 µM) | 1.61 (≈ 4.44 µM) | COc1ccc(F)c(C(Nc2ccc(F)cc2F)C2CCCCC2=O)c1 (stereo not drawn) |
| 6.25 (≈ 18.6 µM) | 12.5 (≈ 37.3 µM) | 6.25 (≈ 18.6 µM) | 6.25 (≈ 18.6 µM) | CC(C)(C)c1ccc(NC(c2ccccc2)C2CCCCC2=O)cc1 (stereo not drawn) |
| 1.61 (≈ 4.84 µM) | 1.61 (≈ 4.84 µM) | 1.61 (≈ 4.84 µM) | 1.61 (≈ 4.84 µM) | O=C1CCCCC1C(Nc1ccc(F)cc1F)c1ccc(F)cc1 (stereo not drawn) |
| 3.12 (≈ 9.22 µM) | 1.61 (≈ 4.76 µM) | 1.61 (≈ 4.76 µM) | 1.61 (≈ 4.76 µM) | N#Cc1ccc(NC(c2ccccc2Cl)C2CCCCC2=O)cc1 (stereo not drawn) |
| 3.12 (≈ 9.37 µM) | 1.61 (≈ 4.84 µM) | 1.61 (≈ 4.84 µM) | 1.61 (≈ 4.84 µM) | O=C1CCCCC1C(Nc1ccc(F)c(F)c1)c1ccccc1F (stereo not drawn) |
| 6.25 (≈ 17.7 µM) | 3.12 (≈ 8.84 µM) | 3.12 (≈ 8.84 µM) | 6.25 (≈ 17.7 µM) | C=CCOc1ccccc1C(Nc1cccc(F)c1)C1CCCCC1=O (stereo not drawn) |
| 1.61 (≈ 4.75 µM) | 1.61 (≈ 4.75 µM) | 1.61 (≈ 4.75 µM) | 1.61 (≈ 4.75 µM) | COc1cccc(NC(c2cccc(C)c2O)C2CCCCC2=O)c1 (stereo not drawn) |
| 12.5 (≈ 34.6 µM) | 12.5 (≈ 34.6 µM) | 12.5 (≈ 34.6 µM) | 12.5 (≈ 34.6 µM) | CCc1ccc(C(Nc2cc(F)c(F)c(F)c2)C2CCCCC2=O)cc1 (stereo not drawn) |
| 6.25 (≈ 17.1 µM) | 6.25 (≈ 17.1 µM) | 6.25 (≈ 17.1 µM) | 25 (≈ 68.2 µM) | CCc1ccc(C(Nc2ccc(C)c([N+](=O)[O-])c2)C2CCCCC2=O)cc1 (stereo not drawn) |
| 3.12 (≈ 8.46 µM) | 1.61 (≈ 4.37 µM) | 3.12 (≈ 8.46 µM) | 1.61 (≈ 4.37 µM) | O=C1CCCCC1C(Nc1cccc2ccccc12)c1cc2ccccc2o1 (stereo not drawn) |
| 3.12 (≈ 9.37 µM) | 1.61 (≈ 4.84 µM) | 1.61 (≈ 4.84 µM) | 1.61 (≈ 4.84 µM) | Cc1cc2cc(NC(c3ccncc3)C3CCCCC3=O)ccc2[nH]1 (stereo not drawn) |

| Structure (SMILES) | MIC (Staphylococcus aureus) [µg/mL] | MIC (Escherichia coli) [µg/mL] | MIC (Bacillus subtilis) [µg/mL] | MIC (Pseudomonas aeruginosa) [µg/mL] |
| --- | --- | --- | --- | --- |
| CO/N=C(\C(=O)N[C@@H]1C(=O)N2C(C(=O)O)=C(CSc3nc(=O)c(O)nn3C)CS[C@H]12)c1csc(N)n1 [CEFTRIAXONE] | 3.12 (≈ 5.63 µM) | 1.61 (≈ 2.91 µM) | 1.61 (≈ 2.91 µM) | 1.61 (≈ 2.91 µM) |

— ChEMBL document CHEMBL1629476, “Synthesis and biological evaluation of aminoketones” (2010)
